Reference: patent US4954483A, “Carboxylic acid ester derivatives or deglucoteicoplanin” (Gruppo Lepetit, S.p.A., priority 1984, dated 1990)

Experiments:
[1] = Solubility characteristics
[2] = Potentiometric titration in methylcellosolve/water 4:1 (pKa, pH1/2); assay type: physicochemical; conditions: methylcellosolve/water 4:1 (v/v), excess 0.01 M HCl, titrated with 0.01 M NaOH
Description: ^(c) the samples are dissolved in methylcellosolve ®/water 4:1
(v/v), an excess of 0.01 M hydrogen chloride in the same mixture is added
thereto and the resulting solution is titrated with 0.01 M NaOH in the […]

S. aureus TOUR = assay: MIC, standard agar-dilution test; assay type: cell-based
Text: Isosensitest broth (Oxoid) and Todd-Hewitt broth (Difco) are used for growing staphylococci and streptococci, respectively. […]

S. aureus ATCC 6538 = assay: MIC, standard agar-dilution test; assay type: cell-based; conditions: inoculum about 10^4 CFU/ml, 18-24 h at 37° C.
Description: (§1) Isosensitest broth (Oxoid) and Todd-Hewitt broth (Difco) are used for growing staphylococci and streptococci, respectively. Broth cultures are diluted so that the final inoculum is about 10^4 colony forming units/ml (CFU/ml).

[3] = tested on: S. epidermidis ATCC 12228; assay: MIC, standard agar-dilution test; assay type: cell-based; conditions: inoculum about 10^4 CFU/ml
Description: as §1

S. pneumoniae UC 41 = assay: MIC, standard agar-dilution test; assay type: cell-based; conditions: inoculum about 10^4 CFU/ml
Description: as §1

E. coli SKF 12140 = assay: MIC, standard agar-dilution test; assay type: cell-based; conditions: inoculum about 10^4 CFU/ml
Description: as §1

[4] = tested on: S. pyogenes C 203 SKF 13400; assay: MIC, standard agar-dilution test; assay type: cell-based; conditions: Todd-Hewitt broth, inoculum about 10^4 CFU/ml
Description: as §1

S. faecalis ATCC 7080 = assay: MIC, standard agar-dilution test; assay type: cell-based; conditions: inoculum about 10^4 CFU/ml
Description: as §1

[5] = S. aureus TOUR + 30% bovine serum

Row | Compound | pKa [2] | MIC (S. aureus TOUR; S. aureus TOUR (10^3 CFU/ml)) | MIC (S. aureus TOUR; S. aureus TOUR (10^6 CFU/ml)) | MIC (S. aureus TOUR; [5]) | MIC (S. aureus ATCC 6538) | MIC [3] | MIC (S. pneumoniae UC 41) | MIC (E. coli SKF 12140) | MIC [4] | MIC (S. faecalis ATCC 7080) | further results
1 | CC(=O)N[C@@H]1[C@@H](O[C@H]2c3ccc(c(Cl)c3)Oc3cc4cc(c3O)Oc3ccc(cc3Cl)C[C@@H]3NC(=O)[C@@H](N)c5ccc(O)c(c5)Oc5cc(O)cc(c5)[C@@H](NC3=O)C(=O)N[C@@H]4C(=O)N[C@@H]3C(=O)N[C@H]2C(=O)N[C@@H](C(=O)O)c2cc(O)cc(O)c2-c2cc3ccc2O)O[C@@H](CO)[C@H](O)[C@H]1O (stereo in doubt) [Antibiotic L 17046] | – | – | – | – | – | – | – | – | – | – | solubility in dimethylformamide, dimethylsulfoxide, propyleneglycol and methylcellosolve [1]: freely soluble; solubility in methanol [1]: slightly soluble; solubility in water ([1]; water at pH>8.0): freely soluble
2 | N[C@H]1C(=O)N[C@@H]2Cc3ccc(c(Cl)c3)Oc3cc4cc(c3O)Oc3ccc(cc3Cl)[C@@H](O)[C@@H]3NC(=O)[C@H](NC(=O)[C@@H]4NC(=O)[C@@H](NC2=O)c2cc(O)cc(c2)Oc2cc1ccc2O)c1ccc(O)c(c1)-c1c(O)cc(O)cc1[C@@H](C(=O)O)NC3=O [Antibiotic L 17392, deglucoteicoplanin] | – | – | – | – | – | – | – | – | – | – | solubility in aqueous methanol, ethanol and acetone [1]: soluble; solubility in ethyl alcohol and dimethylformamide [1]: slightly soluble; solubility in water ([1]; water at a pH higher than 9): soluble
3 | N-benzyloxycarbonyl deglucoteicoplanin [Example 4] | 5.02 | – | – | – | – | – | – | – | – | – | –
4 | deglucoteicoplanin 4-chloro-butyl ester [Example 9] | 6.60 | – | – | – | – | – | – | – | – | – | –
5 | deglucoteicoplanin benzyl ester, hydrochloride [Example 3] | 6.67 | 0.4 µg/mL | 0.4 µg/mL | 0.8 µg/mL | 0.4 µg/mL | 0.1 µg/mL | 0.2 µg/mL | 12.5 µg/mL | 0.05 µg/mL | 0.4 µg/mL | –
6 | deglucoteicoplanin n-butyl ester, hydrochloride [Example 1] | 6.57 | 0.1 µg/mL | 0.4 µg/mL | 0.4 µg/mL | 0.05 µg/mL | 0.05 µg/mL | 0.1 µg/mL | 50 µg/mL | 0.1 µg/mL | 0.2 µg/mL | –
7 | deglucoteicoplanin n-octyl ester, hydrochloride [Example 2] | 6.82 | 0.2 µg/mL | 0.8 µg/mL | 0.8 µg/mL | 0.2 µg/mL | 0.1 µg/mL | 0.05 µg/mL | > 100 µg/mL | 0.05 µg/mL | 0.4 µg/mL | –
